Experiment [1] deals with human embryonic stem cells (CHA6 cell line). Briefly: Evaluation of differentiation of stem cells cultured in mTeSR-1 medium containing PKC activator. The format is cell-based. As to the method:
Colony clumps (5 colony clumps) of human embryonic stem cells (CHA6 cell line, CHA Medical University, Korea) were seeded to each wells of a 96-well plate coated with Matrigel (BD Biosciences, USA). A undifferentiation-maintaining medium, i.e., mTeSR-1 medium containing bFGF, TGF-beta, LiCl, GABA, and pipecolic acid (StemCell Technologies, USA), was added to the each wells, which were then cultured at about 37° C., in about 5.0% CO2 incubator. The culture was performed for 5 to 7 days, while replacing the medium with a new medium containing 10 nM of 12-O-tetradecanoylphorbol-13-acetate (TPA) as a PKC activator, everyday. As a control, human embryonic stem cells were cultured in the mTeSR-1 medium without the PKC activator. And also, human embryonic stem cells were cultured in the mTeSR-1 medium treated with both 10 nM of TPA and 5 uM of Go6983.
The cells cultured in the mTeSR-1 medium formed colony shapes, which were conglomerating each other, without differentiation (a in FIG. 3).
As a result of alkaline phosphatase staining, the staining level and colony shape of the cells cultured in the mTeSR-1 medium were similar to those of undifferentiated stem cells (d in FIG. 3).

For experiment [2] the test system is unchanged. Put plainly: Evaluation of stemness of stem cells cultured in non-conditioned medium containing PKC inhibitor. The format is cell-based. As to the method:
Colony clumps (5 colony clumps) of human embryonic stem cells (CHA6 cell line, CHA Medical University, Korea) were seeded to each wells of a 96-well plate coated with Matrigel (BD Biosciences, USA). A differentiation-inducing medium, i.e., MEF medium [Dulbecco's Modified Eagle Medium (DMEM) containing high glucose (WeIGENE, Korea) supplemented with 10% (v/v) FBS (WeIGENE, Korea), 1% (v/v) Penicillin/streptomycin (Caisson), 1% (v/v) NEAA (GIBCO), 0.1 mM beta-mercaptoethanol (GIBCO)], was added to the each wells, which were then cultured at about 37° C., in about 5.0% CO2 incubator. […]
Evaluations of stemness were also performed in accordance with the same procedures as in the above (1), using a non-conditioned medium [DMEM/F-12 high-glucose (GIBCO) supplemented with 20% (v/v) knockout serum replacement (GIBCO), 1% (v/v) Penicillin/streptomycin (Caisson), 1% (v/v) NEAA(GIBCO), and 0.1 mM beta-mercaptoethanol (GIBCO)], instead of the MEF medium. In addition, expression levels of Oct4 (Octamer Binding Transcription Factor-4), which is another un-differentiated cell marker, were also evaluated through immunostaining with antibody against Oct4.

The test system is the same in experiment [3]. Briefly: Evaluation of stemness of stem cells cultured in MEF medium (differentiation-inducing) containing PKC inhibitor. The format is cell-based. As to conditions: 5 to 7 days. As to the method: Colony clumps (5 colony clumps) of human embryonic stem cells (CHA6 cell line, CHA Medical University, Korea) were seeded to each wells of a 96-well plate coated with Matrigel (BD Biosciences, USA). A differentiation-inducing medium, i.e., MEF medium [Dulbecco's Modified Eagle Medium (DMEM) containing high glucose (WeIGENE, Korea) supplemented with 10% (v/v) FBS (WeIGENE, Korea), 1% (v/v) Penicillin/streptomycin (Caisson), 1% (v/v) NEAA (GIBCO), 0.1 mM beta-mercaptoethanol (GIBCO)], was added to the each wells, which were then cultured at about 37° C., in about 5.0% CO2 incubator. The culture was performed for 5 to 7 days, while replacing the medium with a new medium containing 5 uM of 3-[1-[3-(dimethylamino)propyl]-5-methoxy-1H-indol-3-yl]-4-(1H-indol-3-yl)-1H-pyrrole-2,5-dione)(Gö6983, Calbiochem) as a PKC inhibitor, everyday.
As a control, human embryonic stem cells were cultured in the MEF medium without the PKC inhibitor. And also, human embryonic stem cells were cultured in a differentiation-inhibiting medium, i.e., mTeSR-1 medium containing bFGF, TGF-beta, LiCl, GABA, and pipecolic acid (StemCell Technologies, USA). […]

The test system of experiment [4] is H9 hESC line. Briefly: Evaluation of differentiation of H9 hESC line in Matrigel/MEF-conditioned medium with PKC activator. Type of experiment: cell-based, human. As to conditions: FIG. 4.
Experiment [5] has as its system human embryonic stem cells (CHA6 cell line). Put plainly: Evaluation of differentiation of stem cells in other undifferentiation-maintaining mediums containing PKC activator. The format is cell-based. As to conditions: FIG. 4. As to the method: Colony clumps (5 colony clumps) of human embryonic stem cells (CHA6 cell line, CHA Medical University, Korea) were seeded to each wells of a 96-well plate coated with Matrigel (BD Biosciences, USA). […] The culture was performed for 5 to 7 days, while replacing the medium with a new medium containing 10 nM of 12-O-tetradecanoylphorbol-13-acetate (TPA) as a PKC activator, everyday. […]
Evaluations of differentiation were also performed in accordance with the same procedures as in the above (1), using other undifferentiation-maintaining mediums, [i.e., Matrigel (extracellular matrix)/MEF-conditioned medium (Home made; Serum-free media [80% (v/v) DMEM/F12 (GIBCO), 20% (v/v) Knockout serum replacement (GIBCO), 1% (v/v) MEM non-essential amino acids (GIBCO), 0.1 mM β-mercaptoethanol (GIBCO), 1% (v/v) Pennicillin/streptomycin (Caisson)] was conditioned by γ-irradiated CF-1 mouse embryonic fibroblasts (MEF) at 37° C. for 24 hours) and CELLstart (extracellular matrix) (Invitrogen)/and STEMPRO (Invitrogen)], […] In addition, differentiation of other hESC, i.e., H9 hESC line (WiCell, Wis., USA) was also evaluated in the Matrigel (extracellular matrix)/MEF-conditioned medium with a PKC activator.

For the compound `COc1ccc2c(c1)c(C1=C(c3c[nH]c4ccccc34)C(=O)NC1=O)cn2CCCN(C)C` [Gö6983, 3-[1-[3-(dimethylamino)propyl]-5-methoxy-1H-indol-3-yl]-4-(1H-indol-3-yl)-1H-pyrrole-2,5-dione], in experiment [1] (mTeSR-1 medium treated with both 10 nM TPA and 5 uM Gö6983, FIG. 3 c and f), the “cell shape under co-treatment with PKC activator (inhibition of TPA-induced differentiation)” value is reported as “shapes similar to undifferentiated stem cells”. Moreover, in experiment [2] (NCM containing Gö6983, FIG. 2A f), the “alkaline phosphatase expression level” value is given as “significant increases”. In experiment [2] (NCM containing Gö6983, FIG. 2B c), the “Oct4 expression level (immunostaining)” value is reported as “significant increases”. Also, the “shape, existence and distribution of the cells (optical microscope, nucleus-staining with DAPI)” value in experiment [3] (5 uM PKC inhibitor replaced everyday, Matrigel-coated, FIG. 1 a-f) is given as “maintained colony shapes, which were conglomerating each other”. Also, the “alkaline phosphatase expression level (un-differentiated cell marker, staining)” value in experiment [3] (5 uM PKC inhibitor, FIG. 1 g-i) is listed as “significant increase in alkaline phosphatase expression level”.
On to `CCCCCCCCCCCCCC(=O)O[C@@H]1[C@@H](C)[C@@]2(O)[C@@H](C=C(CO)C[C@]3(O)C(=O)C(C)=C[C@@H]23)[C@@H]2C(C)(C)[C@]12OC(C)=O` [TPA, 12-O-tetradecanoylphorbol-13-acetate], for which the “differentiation, shape and distribution of the cells (optical microscope)” value in experiment [1] (mTeSR-1 medium, 10 nM TPA replaced everyday, 5 to 7 days, FIG. 3 b) is “differentiated and broadly distributed”. Moreover, the “alkaline phosphatase staining level” value in experiment [1] (mTeSR-1 medium, 10 nM TPA, FIG. 3 e) is on record as “very low alkaline phosphatase staining level”. For the same compound, the “induction of differentiation of hESCs” value in experiment [4] is recorded as “induction of differentiation by the PKC activator was also observed”; in experiment [5] (CELLstart/STEMPRO medium with PKC activator), “induced differentiation of hESCs”; in experiment [5] (Matrigel/MEF-conditioned medium with PKC activator), “induced differentiation of hESCs”.
